This series deals with patient with mitochondrial disease. The experiment in a line: Clinical Example 2: administration to a patient with mitochondrial disease. It counts as in vivo, human. The note with it: agent dose in terms of L-arginine 0.5 g/kg/hr. As to the method:
The agent for treating mitochondrial disease of the present invention was administered to a patient with mitochondrial disease at a dose in terms of L-arginine of 0.5 g/kg/hr.

In the case of `N=C(N)NCCC[C@H](N)C(=O)O` [L-arginine alone, L-arginine], the “effects on the symptoms of the mitochondrial disease” value is recorded as “did not sufficiently exhibit” and the vomiting result is given as “repetitive vomiting”.

Values taken from patent publication US20120322863A1, “PREVENTION OF AND COUNTERMEASURES AGAINST MITOCHONDRIAL DISEASE” (priority 2004, published 2012).
